We go through 2 compounds from patent publication US6884813B2, “Antimicrobial dihydrothiazine and dihydrothiopyran oxazolidinones” (Pharmacia & Upjohn Company, priority 2002, dated 2005).

In general, melting point refers to the temperature, or range, at which the solid turns liquid.

In brackets after ≈: the same amount, converted by molar mass.

One data set has as its system SPNE 9912. Put plainly: Minimum inhibitory concentration (MIC) by agar dilution. Type of data set: cell-based. As to conditions: Streptococcus pneumoniae, lowest concentration of drug that inhibits visible growth of the organism, strain SPNE 9912, read-out: Antibacterial Activity, Minimum Inhibitory Concentration (MIC μg/mL) SPNE 9912. The source says: Compounds of this invention have useful activity against a variety of organisms. The in vitro activity of compounds of this invention can be assessed by standard testing procedures such as the determination of minimum inhibitory concentration (MIC) by agar dilution as described in “Approved Standard. Methods for Dilution Antimicrobial Susceptibility Tests for Bacteria That Grow Aerobically”, 3rd. ed., published 1993 by the National Committee for Clinical Laboratory Standards, Villanova, Pa., USA. Minimum inhibitory concentration (MIC) refers to lowest concentration of drug (μg/mL) that inhibits visible growth of the organism. “- -” refers to the activity data is not available.
A general note: In agar dilution the substance is mixed into plates at graded concentrations.

Compound `CC(=O)NC[C@H]1CN(c2ccc(C3C=CS(=O)(=O)CC3)cc2)C(=O)O1` (stereo partly drawn) [Example 14, N-[[(5S)-3-[4-(3,4-dihydro-1,1-dioxido-2H-thiopyran-4-yl)phenyl]-2-oxo-5-oxazolidinyl]methyl]acetamide] had a melting point of 187 to 189 °C. For the same compound, in the data set on SPNE 9912, the MIC stood at 1 µg/mL (≈ 2.74 µM).
The corresponding values for `O=C(NC[C@H]1CN(c2ccc(C3C=CS(=O)(=O)CC3)cc2)C(=O)O1)C(F)F` (stereo partly drawn) [Example 15, N-[[(5S)-3-[4-(3,4-dihydro-1,1-dioxido-2H-thiopyran-4-yl)phenyl]-2-oxo-5-oxazolidinyl]methyl]-2,2-difluoroacetamide] are 135 to 136 °C and 0.5 µg/mL (≈ 1.25 µM).
